IC50 data for 13 compounds are collected here from US20260070945A1, “MACROCYCLIC IMMUNOMODULATORS” (Bristol-Myers Squibb Company, priority 2022, published 2026).

By IC50 is commonly meant the concentration that gives 50% inhibition.

Where a SMILES comes first, the peptide text is derived from it. Bridges are numbered along the chain shown (N, C = ends). [ ]: non-standard residue; d: D form. The star is where a group is joined. Phe(4-COOH) = N[C@@H](Cc1ccc(C(=O)O)cc1)C(=O)O; Bip = N[C@@H](Cc1ccc(-c2ccccc2)cc1)C(=O)O; 4Pal = N[C@@H](Cc1ccncc1)C(=O)O; Cha = N[C@@H](CC1CCCCC1)C(=O)O; Carboxymethyl = O=C(O)C*; NMeA = CN[C@@H](C)C(=O)O; Orn = NCCC[C@H](N)C(=O)O; Aun = NCCCCCCCCCCC(=O)O; Dab = NCC[C@H](N)C(=O)O; Dap = NC[C@H](N)C(=O)O; AEEA = NCCOCCOCC(=O)O

For the assay, the target named is T1, PD-1/PD-L1 interaction (PE-labeled human PD-L1-Ig binding to Jurkat cell line over-expressing human PD-1) (Homo sapiens, UniProt Q15116).
T1 construct: expressed in transfected cells; host or cells: Jurkat
T1 sequence (Q15116 25-288): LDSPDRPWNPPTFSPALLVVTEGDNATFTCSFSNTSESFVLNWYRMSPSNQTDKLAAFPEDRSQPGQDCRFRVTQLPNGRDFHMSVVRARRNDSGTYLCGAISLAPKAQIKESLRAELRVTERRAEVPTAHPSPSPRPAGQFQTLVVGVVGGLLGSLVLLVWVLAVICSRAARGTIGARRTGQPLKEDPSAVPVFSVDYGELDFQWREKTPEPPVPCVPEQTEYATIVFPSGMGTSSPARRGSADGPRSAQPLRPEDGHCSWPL
The assay is described as follows: Jurkat-PD-1 Cell Binding High-Content Screening Assay (CBA). The following applies: Jurkat-hPD-1 cells, PE-labeled PD-L1-Ig 20 nM final; read-out: Jurkat HPD1 PDL1 IC50. The gist of the method:
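Binding of 20 nM (final) PE-tagged PD-L1-Ig to compound-pretreated Jurkat-hPD-1 cells was measured by high-content imaging after 1 h. Pretreatment ran 2 h at 37 °C in DMEM with 10% fetal calf serum.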
As for `CC[C@H](C)[C@@H]1NC(=O)[C@H](Cc2ccc(-c3ccccc3)cc2)NC(=O)[C@H](CC(C)C)NC(=O)[C@H](Cc2c[nH]c3ccccc23)NC(=O)[C@H](CC(=O)O)NC(=O)[C@H](Cc2ccc(C(=O)O)cc2)NC(=O)[C@H](Cc2ccc(OCC(=O)O)cc2)NC(=O)CSC[C@@H](C(=O)N[C@@H](Cc2c[nH]cn2)C(=O)NCCCCCCCCCCC(=O)O)NC(=O)[C@H](CO)NC(=O)[C@H](C(C)C)NC(=O)[C@H](CC2CCCCC2)NC(=O)[C@H](CCN)NC(=O)[C@@H](CC(C)C)NC(=O)[C@H](C)N(C)C1=O` [Example 1075] ({CH2CO}-Y(Carboxymethyl)[Phe(4-COOH)]DWL[Bip]I[NMeA][dL][Dab][Cha]VSCH[Aun]-OH; thioether N-14), the IC50 was found to be 20.2 nM.
Turning to `CC[C@H](C)[C@@H]1NC(=O)[C@H](Cc2ccc(-c3ccccc3)cc2)NC(=O)[C@H](CC(C)C)NC(=O)[C@H](Cc2c[nH]c3ccccc23)NC(=O)[C@H](CC(=O)O)NC(=O)[C@H](Cc2ccc(C(=O)O)cc2)NC(=O)[C@H](Cc2ccc(OCC(=O)O)cc2)NC(=O)CSC[C@@H](C(=O)N[C@@H](CN)C(=O)NCCOCCOCC(=O)NCCCCCCCCCCC(=O)O)NC(=O)[C@H](CO)NC(=O)[C@H](C(C)C)NC(=O)[C@H](CC2CCCCC2)NC(=O)[C@H](CCN)NC(=O)[C@@H](CC(C)C)NC(=O)[C@H](C)N(C)C1=O` [Example 1076] ({CH2CO}-Y(Carboxymethyl)[Phe(4-COOH)]DWL[Bip]I[NMeA][dL][Dab][Cha]VSC[Dap][AEEA][Aun]-OH; thioether N-14), the IC50 worked out at 16.5 nM.
To `CC[C@H](C)[C@@H]1NC(=O)[C@H](Cc2ccc(-c3ccccc3)cc2)NC(=O)[C@H](CC(C)C)NC(=O)[C@H](Cc2c[nH]c3ccccc23)NC(=O)[C@H](CC(=O)O)NC(=O)[C@H](Cc2ccc(C(=O)O)cc2)NC(=O)[C@H](Cc2ccc(OCC(=O)O)cc2)NC(=O)CSC[C@@H](C(=O)N[C@@H](CCN)C(=O)NCCOCCOCC(=O)NCCCCCCCCCCC(=O)O)NC(=O)[C@H](CO)NC(=O)[C@H](C(C)C)NC(=O)[C@H](CC2CCCCC2)NC(=O)[C@H](CCN)NC(=O)[C@@H](CC(C)C)NC(=O)[C@H](C)N(C)C1=O` [Example 1077] ({CH2CO}-Y(Carboxymethyl)[Phe(4-COOH)]DWL[Bip]I[NMeA][dL][Dab][Cha]VSC[Dab][AEEA][Aun]-OH; thioether N-14) belongs 18.3 nM; to `CC[C@H](C)[C@@H]1NC(=O)[C@H](Cc2ccc(-c3ccccc3)cc2)NC(=O)[C@H](CC(C)C)NC(=O)[C@H](Cc2c[nH]c3ccccc23)NC(=O)[C@H](CC(=O)O)NC(=O)[C@H](Cc2ccc(C(=O)O)cc2)NC(=O)[C@H](Cc2ccc(OCC(=O)O)cc2)NC(=O)CSC[C@@H](C(=O)N[C@@H](CCCN)C(=O)NCCOCCOCC(=O)NCCCCCCCCCCC(=O)O)NC(=O)[C@H](CO)NC(=O)[C@H](C(C)C)NC(=O)[C@H](CC2CCCCC2)NC(=O)[C@H](CCN)NC(=O)[C@@H](CC(C)C)NC(=O)[C@H](C)N(C)C1=O` [Example 1078] ({CH2CO}-Y(Carboxymethyl)[Phe(4-COOH)]DWL[Bip]I[NMeA][dL][Dab][Cha]VSC[Orn][AEEA][Aun]-OH; thioether N-14), 16.1 nM.
Regarding `CC[C@H](C)[C@@H]1NC(=O)[C@H](Cc2ccc(-c3ccccc3)cc2)NC(=O)[C@H](CC(C)C)NC(=O)[C@H](Cc2c[nH]c3ccccc23)NC(=O)[C@H](CC(=O)O)NC(=O)[C@H](Cc2ccc(C(=O)O)cc2)NC(=O)[C@H](Cc2ccc(OCC(=O)O)cc2)NC(=O)CSC[C@@H](C(=O)N[C@@H](CCCCN)C(=O)NCCOCCOCC(=O)NCCCCCCCCCCC(=O)O)NC(=O)[C@H](CO)NC(=O)[C@H](C(C)C)NC(=O)[C@H](CC2CCCCC2)NC(=O)[C@H](CCN)NC(=O)[C@@H](CC(C)C)NC(=O)[C@H](C)N(C)C1=O` [Example 1079] ({CH2CO}-Y(Carboxymethyl)[Phe(4-COOH)]DWL[Bip]I[NMeA][dL][Dab][Cha]VSCK[AEEA][Aun]-OH; thioether N-14), the IC50 is 10.8 nM.
The result for `CC[C@H](C)[C@@H]1NC(=O)[C@H](Cc2ccc(-c3ccccc3)cc2)NC(=O)[C@H](CC(C)C)NC(=O)[C@H](Cc2c[nH]c3ccccc23)NC(=O)[C@H](CC(=O)O)NC(=O)[C@H](Cc2ccc(C(=O)O)cc2)NC(=O)[C@H](Cc2ccc(OCC(=O)O)cc2)NC(=O)CSC[C@@H](C(=O)N[C@@H](CCCNC(=N)N)C(=O)NCCOCCOCC(=O)NCCCCCCCCCCC(=O)O)NC(=O)[C@H](CO)NC(=O)[C@H](C(C)C)NC(=O)[C@H](CC2CCCCC2)NC(=O)[C@H](CCN)NC(=O)[C@@H](CC(C)C)NC(=O)[C@H](C)N(C)C1=O` [Example 1080] ({CH2CO}-Y(Carboxymethyl)[Phe(4-COOH)]DWL[Bip]I[NMeA][dL][Dab][Cha]VSCR[AEEA][Aun]-OH; thioether N-14) reads 18.6 nM; that for `CC(C)C[C@@H]1NC(=O)[C@H](Cc2c[nH]c3ccccc23)NC(=O)[C@H](CC(=O)O)NC(=O)[C@H](Cc2ccncc2)NC(=O)[C@H](Cc2ccc(OCC(=O)O)cc2)NC(=O)CSC[C@@H](C(=O)NCCOCCOCC(=O)NCCCCCCCCCCC(=O)O)NC(=O)[C@H](CO)NC(=O)[C@H](C(C)C)NC(=O)[C@H](CC2CCCCC2)NC(=O)[C@H](CCN)NC(=O)[C@@H](CC(C)C)NC(=O)[C@H](C)N(C)C(=O)[C@H](C(C)C)NC(=O)[C@H](Cc2ccc(-c3ccccc3)cc2)NC1=O` [Example 1081] ({CH2CO}-Y(Carboxymethyl)[4Pal]DWL[Bip]V[NMeA][dL][Dab][Cha]VSC[AEEA][Aun]-OH; thioether N-14), 10.1 nM.
To `CC(C)C[C@@H]1NC(=O)[C@H](Cc2c[nH]c3ccccc23)NC(=O)[C@H](CC(=O)O)NC(=O)[C@H](Cc2ccncc2)NC(=O)[C@H](Cc2ccc(OCC(=O)O)cc2)NC(=O)CSC[C@@H](C(=O)N[C@@H](CN)C(=O)NCCCCCCCCCCC(=O)O)NC(=O)[C@H](CO)NC(=O)[C@H](C(C)C)NC(=O)[C@H](CC2CCCCC2)NC(=O)[C@H](CCN)NC(=O)[C@@H](CC(C)C)NC(=O)[C@H](C)N(C)C(=O)[C@H](C(C)C)NC(=O)[C@H](Cc2ccc(-c3ccccc3)cc2)NC1=O` [Example 1082] ({CH2CO}-Y(Carboxymethyl)[4Pal]DWL[Bip]V[NMeA][dL][Dab][Cha]VSC[Dap][Aun]-OH; thioether N-14) belongs 28.2 nM; to `CC(C)C[C@@H]1NC(=O)[C@H](Cc2c[nH]c3ccccc23)NC(=O)[C@H](CC(=O)O)NC(=O)[C@H](Cc2ccncc2)NC(=O)[C@H](Cc2ccc(OCC(=O)O)cc2)NC(=O)CSC[C@@H](C(=O)N[C@@H](CCN)C(=O)NCCCCCCCCCCC(=O)O)NC(=O)[C@H](CO)NC(=O)[C@H](C(C)C)NC(=O)[C@H](CC2CCCCC2)NC(=O)[C@H](CCN)NC(=O)[C@@H](CC(C)C)NC(=O)[C@H](C)N(C)C(=O)[C@H](C(C)C)NC(=O)[C@H](Cc2ccc(-c3ccccc3)cc2)NC1=O` [Example 1083] ({CH2CO}-Y(Carboxymethyl)[4Pal]DWL[Bip]V[NMeA][dL][Dab][Cha]VSC[Dab][Aun]-OH; thioether N-14), 15.7 nM; to `CC(C)C[C@@H]1NC(=O)[C@H](Cc2c[nH]c3ccccc23)NC(=O)[C@H](CC(=O)O)NC(=O)[C@H](Cc2ccncc2)NC(=O)[C@H](Cc2ccc(OCC(=O)O)cc2)NC(=O)CSC[C@@H](C(=O)N[C@@H](CCCN)C(=O)NCCCCCCCCCCC(=O)O)NC(=O)[C@H](CO)NC(=O)[C@H](C(C)C)NC(=O)[C@H](CC2CCCCC2)NC(=O)[C@H](CCN)NC(=O)[C@@H](CC(C)C)NC(=O)[C@H](C)N(C)C(=O)[C@H](C(C)C)NC(=O)[C@H](Cc2ccc(-c3ccccc3)cc2)NC1=O` [Example 1084] ({CH2CO}-Y(Carboxymethyl)[4Pal]DWL[Bip]V[NMeA][dL][Dab][Cha]VSC[Orn][Aun]-OH; thioether N-14), 20.9 nM.
To `CC(C)C[C@@H]1NC(=O)[C@H](Cc2c[nH]c3ccccc23)NC(=O)[C@H](CC(=O)O)NC(=O)[C@H](Cc2ccncc2)NC(=O)[C@H](Cc2ccc(OCC(=O)O)cc2)NC(=O)CSC[C@@H](C(=O)N[C@@H](CCCCN)C(=O)NCCCCCCCCCCC(=O)O)NC(=O)[C@H](CO)NC(=O)[C@H](C(C)C)NC(=O)[C@H](CC2CCCCC2)NC(=O)[C@H](CCN)NC(=O)[C@@H](CC(C)C)NC(=O)[C@H](C)N(C)C(=O)[C@H](C(C)C)NC(=O)[C@H](Cc2ccc(-c3ccccc3)cc2)NC1=O` [Example 1085] ({CH2CO}-Y(Carboxymethyl)[4Pal]DWL[Bip]V[NMeA][dL][Dab][Cha]VSCK[Aun]-OH; thioether N-14) belongs 15.4 nM; to `CC(C)C[C@@H]1NC(=O)[C@H](Cc2c[nH]c3ccccc23)NC(=O)[C@H](CC(=O)O)NC(=O)[C@H](Cc2ccncc2)NC(=O)[C@H](Cc2ccc(OCC(=O)O)cc2)NC(=O)CSC[C@@H](C(=O)N[C@@H](CCCNC(=N)N)C(=O)NCCCCCCCCCCC(=O)O)NC(=O)[C@H](CO)NC(=O)[C@H](C(C)C)NC(=O)[C@H](CC2CCCCC2)NC(=O)[C@H](CCN)NC(=O)[C@@H](CC(C)C)NC(=O)[C@H](C)N(C)C(=O)[C@H](C(C)C)NC(=O)[C@H](Cc2ccc(-c3ccccc3)cc2)NC1=O` [Example 1086] ({CH2CO}-Y(Carboxymethyl)[4Pal]DWL[Bip]V[NMeA][dL][Dab][Cha]VSCR[Aun]-OH; thioether N-14), 31 nM; to `CC(C)C[C@@H]1NC(=O)[C@H](Cc2c[nH]c3ccccc23)NC(=O)[C@H](CC(=O)O)NC(=O)[C@H](Cc2ccncc2)NC(=O)[C@H](Cc2ccc(OCC(=O)O)cc2)NC(=O)CSC[C@@H](C(=O)N[C@@H](Cc2c[nH]cn2)C(=O)NCCCCCCCCCCC(=O)O)NC(=O)[C@H](CO)NC(=O)[C@H](C(C)C)NC(=O)[C@H](CC2CCCCC2)NC(=O)[C@H](CCN)NC(=O)[C@@H](CC(C)C)NC(=O)[C@H](C)N(C)C(=O)[C@H](C(C)C)NC(=O)[C@H](Cc2ccc(-c3ccccc3)cc2)NC1=O` [Example 1087] ({CH2CO}-Y(Carboxymethyl)[4Pal]DWL[Bip]V[NMeA][dL][Dab][Cha]VSCH[Aun]-OH; thioether N-14), 33.2 nM.
